The text below walks through data of patent publication US20240279225A1, “COMPOUNDS AND METHODS FOR THERANOSTIC TARGETING OF PARP ACTIVITY” (BOARD OF REGENTS, THE UNIVERSITY OF TEXAS SYSTEM, priority 2021, published 2024).

In data set [1] the target is T1, PARP1 (Homo sapiens, UniProt P09874). Conditions: purified enzyme assays, background values; cited from earlier work.
The conditions of data set [2]: mouse models, cited from earlier work.
The conditions of data set [3]: humans, eight subjects with cancer and eight healthy volunteers; cited from earlier work.
Data set [4] can be described thus: Shelf stability in PBS (10% EtOH). The class given is physicochemical.
A short description of data set [5]: Stability in full human plasma at 37° C. It is filed as in vitro ADME.
The test system of the next data set is MCF-7 empty vector cells. In words: Cellular uptake of ^18F-Talazoparib, MCF-7 empty vector cells. It is filed as cell-based. As to the method:
(§1) All experiments were performed in quadruplicate in a 24 well plate format. […] Experiment that abrogated metabolism were performed at 4° C., a temperature at which cellular membranes become less fluid and permeability is low. After 120 min, an aliquot of the cell media (200 μl) was obtained for gamma counting, the remaining media removed, and cells washed with MEBSS. Cells were then lysed with 1% SDS, 10 mM sodium borate for 30 min at room temperature. […] Protein contents were quantified using BCA protein assay kit (Thermos Scientific) according to the manufacture's protocol using bovine serum albumin (BSA) as the protein standard.

The test system of data set [6] is MCF-7 cells stably transfected with MDR1 P-glycoprotein (Pgp). The experiment in a line: Cellular uptake of ^18F-Talazoparib, MCF-7 cells expressing MDR1 Pgp. As to the method: as §1
The target of data set [7] is T2, PARP1 (Mus musculus, UniProt P11103).
T2 construct: from tissue; host or cells: Lymphoid tissue and liver of a living nude female mouse
In words: In vivo whole body biodistribution and blocking by small animal PET/CT. As for the experimental part: Preliminary PET images were acquired for 10 min using a 15 cm field of view (FOV); CT images were acquired for fusion using a 7 cm FOV and automatically “stitched” and fused to the PET imaging in the reconstruction software (Albira Suite, Bruker). […] Image data were decay corrected to injection time (Albira, Bruker) and expressed as % ID/cc or SUV as indicated (PMOD, PMOD Technologies). Actual injected dose was calculated based on measuring the pre- and post-injection activity in the syringe with a dose calibrator (Capintec) and mice were individually weighed to calculate individual standardized uptake values (SUV).
In vivo whole body biodistribution and blocking experiments were performed using a small animal PET/CT scanner after the injection of ^18F-Talazoparib (˜100 μCi) in a nude female mouse; images were acquired two hours post injection and decay corrected to the injection time.

Data set [8] concerns the target T1, PARP1. The experiment in a line: PARP1 apoptosis assay kit (Trevigen), inhibition of purified PARP1 enzyme activity. It is filed as biochemical. Conditions: racemic mixture, three replicates per concentration.

Entries after “also recorded” stand apart in the source; their conditions may differ. Where two headings read alike, the source gives them in different places.

T2 sequence (P11103 whole entry): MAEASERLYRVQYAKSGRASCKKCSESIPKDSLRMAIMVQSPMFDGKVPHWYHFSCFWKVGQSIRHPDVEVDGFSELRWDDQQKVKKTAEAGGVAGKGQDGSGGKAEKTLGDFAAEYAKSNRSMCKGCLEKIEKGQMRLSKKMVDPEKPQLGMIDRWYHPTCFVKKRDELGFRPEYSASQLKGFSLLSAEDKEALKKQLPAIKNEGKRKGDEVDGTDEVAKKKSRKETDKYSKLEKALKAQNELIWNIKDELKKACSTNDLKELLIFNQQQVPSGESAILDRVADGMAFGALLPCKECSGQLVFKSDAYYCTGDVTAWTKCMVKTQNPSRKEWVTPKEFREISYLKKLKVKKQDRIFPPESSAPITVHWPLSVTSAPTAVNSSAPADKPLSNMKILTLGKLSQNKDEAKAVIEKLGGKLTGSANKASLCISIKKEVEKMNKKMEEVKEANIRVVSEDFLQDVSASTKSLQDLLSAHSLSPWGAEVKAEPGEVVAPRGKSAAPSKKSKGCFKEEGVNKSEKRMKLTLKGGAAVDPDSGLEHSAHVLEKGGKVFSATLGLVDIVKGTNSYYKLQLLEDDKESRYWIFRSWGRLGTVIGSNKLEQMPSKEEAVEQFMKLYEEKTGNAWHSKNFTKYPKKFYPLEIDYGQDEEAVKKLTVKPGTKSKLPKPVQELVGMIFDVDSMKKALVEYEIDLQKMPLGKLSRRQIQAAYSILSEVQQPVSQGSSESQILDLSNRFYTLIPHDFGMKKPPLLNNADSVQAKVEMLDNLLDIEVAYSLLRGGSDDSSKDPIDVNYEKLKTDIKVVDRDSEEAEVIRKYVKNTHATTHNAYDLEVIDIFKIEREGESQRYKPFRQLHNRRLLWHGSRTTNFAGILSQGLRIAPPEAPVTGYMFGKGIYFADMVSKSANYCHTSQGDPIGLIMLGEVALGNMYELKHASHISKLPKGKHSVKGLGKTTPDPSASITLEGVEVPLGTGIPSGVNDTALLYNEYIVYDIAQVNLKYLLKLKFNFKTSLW
T1 sequence (P09874 whole entry): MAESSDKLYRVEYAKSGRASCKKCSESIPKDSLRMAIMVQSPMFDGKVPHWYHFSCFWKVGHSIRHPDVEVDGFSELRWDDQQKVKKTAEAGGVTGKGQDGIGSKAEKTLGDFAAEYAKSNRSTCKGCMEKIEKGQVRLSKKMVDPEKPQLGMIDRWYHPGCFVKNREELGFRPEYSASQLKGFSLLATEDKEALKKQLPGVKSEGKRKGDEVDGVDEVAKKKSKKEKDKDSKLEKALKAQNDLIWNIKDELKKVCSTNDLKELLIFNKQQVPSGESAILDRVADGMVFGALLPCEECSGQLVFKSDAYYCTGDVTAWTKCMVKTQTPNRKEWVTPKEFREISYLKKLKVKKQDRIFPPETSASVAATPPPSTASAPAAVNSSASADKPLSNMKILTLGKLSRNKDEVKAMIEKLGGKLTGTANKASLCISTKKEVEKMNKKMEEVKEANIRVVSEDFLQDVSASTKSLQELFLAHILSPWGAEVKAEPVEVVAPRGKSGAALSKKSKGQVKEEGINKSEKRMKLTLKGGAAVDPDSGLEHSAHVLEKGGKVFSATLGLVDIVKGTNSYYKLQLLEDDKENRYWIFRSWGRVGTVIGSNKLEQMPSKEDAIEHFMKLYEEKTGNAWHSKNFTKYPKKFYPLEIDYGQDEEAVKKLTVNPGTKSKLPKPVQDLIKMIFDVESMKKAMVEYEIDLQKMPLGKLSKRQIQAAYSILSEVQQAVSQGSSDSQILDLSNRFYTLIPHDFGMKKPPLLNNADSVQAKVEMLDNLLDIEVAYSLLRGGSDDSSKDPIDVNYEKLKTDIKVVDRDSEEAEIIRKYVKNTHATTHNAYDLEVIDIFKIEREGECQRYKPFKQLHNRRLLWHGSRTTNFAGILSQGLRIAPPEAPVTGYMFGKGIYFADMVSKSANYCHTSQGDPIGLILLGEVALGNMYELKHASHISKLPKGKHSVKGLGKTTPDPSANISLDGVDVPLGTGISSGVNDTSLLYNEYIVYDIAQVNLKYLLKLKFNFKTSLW

With `O=C1NCCn2c(-c3ccc(OCCF)cc3)nc3cccc1c32` [^18F-FTT], on PARP1 [1], the IC50 (usually the concentration that inhibits the measured activity by half) is 6.3 nM.
For the compound `O=C1NCCn2c(-c3ccc(OCC[18F])cc3)nc3cccc1c32` [^18F-FTT], the figures for the “intact parent molecule observed in the blood” value in data set [2] (after 5 minutes) and in data set [2] (after 30 min) were 55% and 13%, respectively. In addition, in data set [3], the “organ uptake on PET imaging” value is “high uptake in spleen, pancreas, and liver”.
In the case of `Cn1ncnc1C1c2n[nH]c(=O)c3cc([18F])cc(c23)NC1c1ccc(F)cc1` (stereo not drawn) [^18F-Talazoparib, 5-[^18F]fluoro-8-(4-fluorophenyl)-9-(1-methyl·1H·1,2,4-triazol-5-yl)-2,7,8,9-tetrahydro-3H-pyrido[4,3,2-de]phthalazin-3-one], the shelf stability entry in data set [4] is reported as “up to 4 h”. For the same compound, the “stable in full human plasma” value in data set [5] was “up to 4 h”. Besides, the “cell uptake in presence of excess non-radioactive Talazoparib” value with MCF-7 empty vector cells (37° C., 100 nM non-radioactive Talazoparib preincubated 30 min) is on record as “completely blocked”. Moreover, the “cell uptake of tracer” value with MCF-7 empty vector cells (120 min incubation at 37° C., compared to 4° C.) is “high uptake of the tracer compared to cells incubated at 4 °C”. Also, the “effect of MDR inhibitors on cell uptake” value with MCF-7 empty vector cells (LY-335979 or CP-100356 preincubated 30 min) is “no effect”. In addition, the “MDR1 Pgp transport substrate” value in data set [6] was “recognized as a transport substrate by MDR1 Pgp”. The “basal retention at 4° C.” value in [6] (MDR1 Pgp expressed, 4° C.) is reported as “further reduced”. Besides, the “net retention of tracer” value in data set [6] (MDR1 Pgp expressed, 37° C., 120 min) was “drastic decrease in the net retention”. Besides, the “basal retention with excess cold Talazoparib” value in [6] (MDR1 Pgp expressed, excess cold Talazoparib) is “fully displaced”. The “cellular retention with Pgp-mediated efflux inhibited” value in data set [6] (MDR1 Pgp expressed, with LY or CP) is “increased back to levels compared to MCF-7 cells lacking MDR1 Pgp”. Also, the “blocking of lymphoid tissue and liver uptake by cold Talazoparib” value on PARP1 [7] (0.3 mg/kg cold Talazoparib IV 60 minutes before tracer) is given as “could be blocked by excess cold Talazoparib; also recorded: blockade of target engagement of PARP1”. The excretion pathway entry at PARP1 [7] (2 hr static images, vehicle-treated nude mice) is “mixed excretion pathway (renal and hepatobiliary clearance)”. For the same compound, at PARP1 [7] (nude female mouse, ~100 μCi, two hours post injection), the “tissue uptake on PET images” value is “uptake in the lymphoid tissue (LT) located at the base of the neck, in the liver (L), and in excretory organs, such as bladder and intestine”.
For the compound “methyl 2-(4-bromophenyl)-7-fluoro-3-(1-methyl-1H-1,2,4-triazol-5-yl)-4-oxo-1,2,3,4-tetrahydroquinoline-5-carboxylate [Compound 1]”, the IC50 at PARP1 [8] came out at 2.33 nM.
